Read-outs that look alike come from different tables or passages of the source. Marks after values point to notes of the source that are not given here.

Results on five compounds are retold here after patent US20240401154A1, “SYNTHESIS AND PREPARATION OF ULTRA-LOW VISCOSITY AND HIGH MAGNETIC SUSCEPTIBILITY MAGNETIC IONIC LIQUIDS” (priority 2023, published 2024).

For data set [1] the following is noted: GC-FID; previously referenced MILs; cited from earlier work.
The conditions of data set [2]: SQUID magnetometer; previously studied MILs, Table 2; cited from earlier work.
The conditions of data set [3]: previously referenced MILs, cited from earlier work.
The conditions of data set [4]: previously studied MILs, Table 2, cited from earlier work.
Data set [5] in a line: Magnetic properties by SQUID magnetometer. Type of data set: physicochemical. Particulars: applied magnetic field H=20 kOe; Curie-Weiss fit. On the procedure:
Magnetic properties were analyzed using a magnetic susceptibility balance (MSB, Sherwood Scientific, Cambridge, UK) and a Quantum Design Superconducting Quantum Interference Device (SQUID) magnetometer (MPMS XL-7). The magnetic properties of transition metal MILs were further studied using a SQUID magnetometer to confirm their paramagnetic nature as well as if any magnetic transition occurs in the samples.
The magnetic properties of transition metal MILs were further studied using a SQUID magnetometer to confirm their paramagnetic nature as well as if any magnetic transition occurs in the samples.
The calculated μeff of 5.21μB for the [Ni(C6-DGE)6][Ni(hfacac)3]2 MIL (FIG. 12A) from SQUID matches quite well with the theoretical μtheo value (5.31μB, TABLE 1) and also with that obtained from MSB measurements (5.48μB).

Where [6] appears, read: acetone, chloroform, dichloromethane, acetonitrile, methanol, ethanol, diethyl ether, ethyl acetate, isopropanol at 20% (w/v).
Setting [7] is: hexane, heptane, benzene, toluene at 10% (w/v).

Turning to `CCCCCCCCCCCCCC[P+](CCCCCC)(CCCCCC)CCCCCC.O=C(C=C([O-])C(F)(F)F)C(F)(F)F.O=C(C=C([O-])C(F)(F)F)C(F)(F)F.O=C(C=C([O-])C(F)(F)F)C(F)(F)F.[Mn+2]` [[P66614][Mn(hfacac)3]], in data set [1], the “Onset of MIL volatilization (° C.)^1” value is 155 °C. For the same compound, the Effective magnetic moment in data set [2] is on record as 5.80^f. The Solubility entry in data set [3] (setting [6]) was “S^b (soluble in acetone, chloroform, dichloromethane, acetonitrile, methanol, ethanol, diethyl ether, ethyl acetate, and isopropanol at 20% (w/v).)”; in data set [3] (setting [7]), “S^a (soluble in hexane, heptane, benzene, and toluene at 10% (w/v).)”; in data set [3] (water at 0.01% (w/v)), “S^f (insoluble in water at 0.01% (w/v).)”. Further, the Viscosity in data set [4] (reported at 23.7° C.) is 401.8^c.
As to `CCCCCCOC(=O)COCC(=O)OCCCCCC.CCCCCCOC(=O)COCC(=O)OCCCCCC.CCCCCCOC(=O)COCC(=O)OCCCCCC.CCCCCCOC(=O)COCC(=O)OCCCCCC.CCCCCCOC(=O)COCC(=O)OCCCCCC.CCCCCCOC(=O)COCC(=O)OCCCCCC.O=C(C=C([O-])C(F)(F)F)C(F)(F)F.O=C(C=C([O-])C(F)(F)F)C(F)(F)F.O=C(C=C([O-])C(F)(F)F)C(F)(F)F.O=C(C=C([O-])C(F)(F)F)C(F)(F)F.O=C(C=C([O-])C(F)(F)F)C(F)(F)F.O=C(C=C([O-])C(F)(F)F)C(F)(F)F.[Mn+2].[Mn+2].[Mn+2]` [MIL 3], in data set [5], the “μeff from SQUID” value turned out to be 8.31 μB.
For the compound `CCCCCCOC(=O)COCC(=O)OCCCCCC.CCCCCCOC(=O)COCC(=O)OCCCCCC.CCCCCCOC(=O)COCC(=O)OCCCCCC.CCCCCCOC(=O)COCC(=O)OCCCCCC.CCCCCCOC(=O)COCC(=O)OCCCCCC.CCCCCCOC(=O)COCC(=O)OCCCCCC.O=C(C=C([O-])C(F)(F)F)C(F)(F)F.O=C(C=C([O-])C(F)(F)F)C(F)(F)F.O=C(C=C([O-])C(F)(F)F)C(F)(F)F.O=C(C=C([O-])C(F)(F)F)C(F)(F)F.O=C(C=C([O-])C(F)(F)F)C(F)(F)F.O=C(C=C([O-])C(F)(F)F)C(F)(F)F.[Ni+2].[Ni+2].[Ni+2]` [MIL 2], in data set [5], the “μeff from SQUID” value is given as 5.21 μB.
On to `CCCCCCCCN(CCCCCCCC)C(=O)COCC(=O)N(CCCCCCCC)CCCCCCCC.CCCCCCCCN(CCCCCCCC)C(=O)COCC(=O)N(CCCCCCCC)CCCCCCCC.CCCCCCCCN(CCCCCCCC)C(=O)COCC(=O)N(CCCCCCCC)CCCCCCCC.O=C(C=C([O-])C(F)(F)F)C(F)(F)F.O=C(C=C([O-])C(F)(F)F)C(F)(F)F.O=C(C=C([O-])C(F)(F)F)C(F)(F)F.O=C(C=C([O-])C(F)(F)F)C(F)(F)F.O=C(C=C([O-])C(F)(F)F)C(F)(F)F.O=C(C=C([O-])C(F)(F)F)C(F)(F)F.O=C(C=C([O-])C(F)(F)F)C(F)(F)F.O=C(C=C([O-])C(F)(F)F)C(F)(F)F.O=C(C=C([O-])C(F)(F)F)C(F)(F)F.O=C(C=C([O-])C(F)(F)F)C(F)(F)F.O=C(C=C([O-])C(F)(F)F)C(F)(F)F.O=C(C=C([O-])C(F)(F)F)C(F)(F)F.[Dy+3].[Dy+3].[Dy+3].[Dy+3]` [[Dy(TODGA)3][Dy(hfacac)4]3], for which the “Onset of MIL volatilization (° C.)^1” value in data set [1] was 175 °C. The Effective magnetic moment in data set [2] is reported as 20.00^f. Also, the Solubility entry was “S^b (soluble in acetone, chloroform, dichloromethane, acetonitrile, methanol, ethanol, diethyl ether, ethyl acetate, and isopropanol at 20% (w/v).)” in data set [3] (setting [6]); “S^a (soluble in hexane, heptane, benzene, and toluene at 10% (w/v).)” in data set [3] (setting [7]); “S^c (soluble in hexane, heptane, benzene, and toluene at 20% (w/v).)” in data set [3] (hexane, heptane, benzene, toluene at 20% (w/v)); “S^f (insoluble in water at 0.01% (w/v).)” in data set [3] (water at 0.01% (w/v)). The Viscosity in data set [4] (reported at 19.9° C.) is recorded as 9,210^e.
As to `CCCCCCCCN(CCCCCCCC)C(=O)COCC(=O)N(CCCCCCCC)CCCCCCCC.CCCCCCCCN(CCCCCCCC)C(=O)COCC(=O)N(CCCCCCCC)CCCCCCCC.O=C(C=C([O-])C(F)(F)F)C(F)(F)F.O=C(C=C([O-])C(F)(F)F)C(F)(F)F.O=C(C=C([O-])C(F)(F)F)C(F)(F)F.O=C(C=C([O-])C(F)(F)F)C(F)(F)F.O=C(C=C([O-])C(F)(F)F)C(F)(F)F.O=C(C=C([O-])C(F)(F)F)C(F)(F)F.[Co+2].[Co+2].[Co+2]` [[Co(TODGA)2][Co(hfacac)3]2], the “Onset of MIL volatilization (° C.)^1” value in data set [1] is 231 °C. The Effective magnetic moment in data set [2] is recorded as 13.34^f. The Solubility result in data set [3] (setting [6]) is “S^b (soluble in acetone, chloroform, dichloromethane, acetonitrile, methanol, ethanol, diethyl ether, ethyl acetate, and isopropanol at 20% (w/v).)”; in data set [3] (setting [7]), “S^a (soluble in hexane, heptane, benzene, and toluene at 10% (w/v).)”; in data set [3] (water at 0.01% (w/v)), “S^f (insoluble in water at 0.01% (w/v).)”. Besides, the Viscosity in data set [4] (reported at 19.9° C.) is recorded as 28,310^e.
